Source: article PMC11405271, “Atypical cellular responses mediated by intracellular constitutive active TrkB (NTRK2) kinase domains and a solely intracellular NTRK2-fusion oncogene” (Cancer Gene Therapy, 2024)

Target: T1, TrkB-wt (Mus musculus, UniProt P15209)
T1 construct: gene Ntrk2; full-length receptor with kinase domain, pcDNA3, transiently overexpressed in HEK293; 130 kDa mature and 90 kDa underglycosylated
Test: Western blot and immunofluorescence of pTrk-kin, transfected HEK293
Assay type: cell-based
Settings: no neurotrophin, constitutive kinase activity; concentrations only in figure

T1 sequence (P15209 32-821): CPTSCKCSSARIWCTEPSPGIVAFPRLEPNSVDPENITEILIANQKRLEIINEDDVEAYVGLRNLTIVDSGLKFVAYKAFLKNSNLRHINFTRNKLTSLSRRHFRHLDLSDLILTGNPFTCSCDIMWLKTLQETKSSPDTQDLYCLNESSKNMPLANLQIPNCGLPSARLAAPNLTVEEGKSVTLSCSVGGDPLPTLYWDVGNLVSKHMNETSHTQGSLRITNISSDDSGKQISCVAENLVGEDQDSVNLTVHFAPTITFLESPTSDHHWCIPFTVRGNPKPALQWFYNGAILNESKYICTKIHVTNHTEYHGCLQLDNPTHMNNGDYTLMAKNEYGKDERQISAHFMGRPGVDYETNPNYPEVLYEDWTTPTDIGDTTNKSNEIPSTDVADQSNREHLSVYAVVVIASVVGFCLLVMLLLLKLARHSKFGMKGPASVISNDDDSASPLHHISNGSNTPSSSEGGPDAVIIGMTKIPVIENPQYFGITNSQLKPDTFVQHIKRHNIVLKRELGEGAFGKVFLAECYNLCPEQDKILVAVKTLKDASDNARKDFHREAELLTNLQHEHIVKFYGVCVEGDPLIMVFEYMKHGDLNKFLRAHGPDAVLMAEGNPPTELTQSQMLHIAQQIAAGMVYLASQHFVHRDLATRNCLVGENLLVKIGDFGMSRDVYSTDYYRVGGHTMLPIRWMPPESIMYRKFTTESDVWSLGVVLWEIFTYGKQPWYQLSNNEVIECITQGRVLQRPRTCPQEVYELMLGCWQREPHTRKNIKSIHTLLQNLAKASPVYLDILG

Compound | Western blot and immunofluorescence of pTrk-kin, transfected HEK293
CN1CCN(c2ccc(C(=O)Nc3n[nH]c4ccc(Cc5cc(F)cc(F)c5)cc34)c(NC3CCOCC3)c2)CC1 [Entrectinib] | TrkB self-activity is reduced upon inhibitor treatment
O=C(Nc1cnn2ccc(N3CCC[C@@H]3c3cc(F)ccc3F)nc12)N1CC[C@H](O)C1 [LOXO-101] | TrkB self-activity is reduced upon inhibitor treatment
